ChEMBL document CHEMBL1154053, “The structure-based design, synthesis, and biological evaluation of DNA-binding amide linked bisintercalating bisanthrapyrazole anticancer compounds” (Bioorg Med Chem, 2009)

What was measured:
Calf thymus DNA = experiment: Binding affinity to calf thymus DNA assessed as change in melting temperature at 2 uM by thermal denaturation assay; assay type: nucleic-acid assay; settings: Bos taurus
[1] = target: DNA topoisomerase 2-alpha (Homo sapiens, UniProt P11388); experiment: Inhibition of decatenation activity of human topoisomerase 2alpha
Chain of DNA topoisomerase 2-alpha (P11388 whole entry): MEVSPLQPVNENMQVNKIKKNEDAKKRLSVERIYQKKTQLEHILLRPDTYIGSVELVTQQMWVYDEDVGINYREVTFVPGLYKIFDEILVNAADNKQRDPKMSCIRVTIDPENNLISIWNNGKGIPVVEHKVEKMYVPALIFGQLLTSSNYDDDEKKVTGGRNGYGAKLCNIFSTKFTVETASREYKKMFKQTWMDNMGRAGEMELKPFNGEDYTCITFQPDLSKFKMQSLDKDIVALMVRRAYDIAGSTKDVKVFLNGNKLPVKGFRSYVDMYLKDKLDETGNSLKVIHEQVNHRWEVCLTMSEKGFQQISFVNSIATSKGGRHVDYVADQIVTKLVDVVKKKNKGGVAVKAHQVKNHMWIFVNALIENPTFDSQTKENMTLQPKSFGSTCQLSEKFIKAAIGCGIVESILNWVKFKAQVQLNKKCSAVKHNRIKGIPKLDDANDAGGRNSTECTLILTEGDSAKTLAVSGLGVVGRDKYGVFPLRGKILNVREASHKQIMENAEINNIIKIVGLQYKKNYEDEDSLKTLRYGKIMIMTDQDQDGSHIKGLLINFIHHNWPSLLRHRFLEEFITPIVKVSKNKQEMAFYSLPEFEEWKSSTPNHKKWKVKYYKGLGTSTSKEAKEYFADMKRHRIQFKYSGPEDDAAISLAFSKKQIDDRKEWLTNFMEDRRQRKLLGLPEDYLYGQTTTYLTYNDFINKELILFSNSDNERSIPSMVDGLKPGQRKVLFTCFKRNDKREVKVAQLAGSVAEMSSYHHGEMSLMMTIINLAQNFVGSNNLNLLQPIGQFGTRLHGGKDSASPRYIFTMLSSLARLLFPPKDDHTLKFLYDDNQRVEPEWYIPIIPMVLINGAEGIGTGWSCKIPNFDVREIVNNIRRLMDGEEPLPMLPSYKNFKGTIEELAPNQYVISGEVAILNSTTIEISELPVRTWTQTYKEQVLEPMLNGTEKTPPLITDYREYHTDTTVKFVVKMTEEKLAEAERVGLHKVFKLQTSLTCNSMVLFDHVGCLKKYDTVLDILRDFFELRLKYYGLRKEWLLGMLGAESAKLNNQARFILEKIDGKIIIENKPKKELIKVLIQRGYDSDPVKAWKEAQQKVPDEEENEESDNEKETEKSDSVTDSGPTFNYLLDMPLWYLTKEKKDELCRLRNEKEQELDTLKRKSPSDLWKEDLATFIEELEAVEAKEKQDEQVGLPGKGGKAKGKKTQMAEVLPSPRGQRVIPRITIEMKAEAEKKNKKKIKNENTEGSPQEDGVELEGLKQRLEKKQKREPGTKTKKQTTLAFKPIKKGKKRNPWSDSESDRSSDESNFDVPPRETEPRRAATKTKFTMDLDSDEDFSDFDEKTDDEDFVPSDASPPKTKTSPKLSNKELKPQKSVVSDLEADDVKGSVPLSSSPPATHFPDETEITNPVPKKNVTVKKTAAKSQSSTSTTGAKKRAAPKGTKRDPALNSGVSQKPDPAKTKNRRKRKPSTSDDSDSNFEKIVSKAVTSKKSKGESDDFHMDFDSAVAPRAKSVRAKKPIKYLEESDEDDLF

K562 [2] = experiment: Growth inhibition of human K562 cells by MTS method; assay type: functional, cell-based
[3] = Growth inhibition of human K/VP.5 cells by MTS method; assay type: functional
K562 [4] = experiment: Resistance factor, ratio of IC50 for human K/VP.5 cells to IC50 for human K562 cells; assay type: functional

Compound	ΔTm (Calf thymus DNA) [°C]	IC50 [1] [µM]	IC50 (K562 [2]) [µM]	IC50 [3] [µM]	Ratio IC50 (K562 [4])
CN(CCN=[N+]=[N-])CCn1nc2c3c(cccc31)C(=O)c1c(Cl)cccc1-2	1.1	25	3.6		
CN(CCNC(=O)CCCC(=O)NCCN(C)CCn1nc2c3c(cccc31)C(=O)c1c(Cl)cccc1-2)CCn1nc2c3c(cccc31)C(=O)c1c(Cl)cccc1-2	17.8	25	5.7	2.3	0.39
CN(CCO)CCn1nc2c3c(cccc31)C(=O)c1c(Cl)cccc1-2	5.4	10	3.1	1.9	0.63
CN(CCN)CCn1nc2c3c(cccc31)C(=O)c1c(Cl)cccc1-2	10.2	18	3.6	1.5	0.43
CN(CCNC(=O)CC(=O)NCCN(C)CCn1nc2c3c(cccc31)C(=O)c1c(Cl)cccc1-2)CCn1nc2c3c(cccc31)C(=O)c1c(Cl)cccc1-2	9.6	42	2.6	2	0.77
CN(CCNC(=O)CCCCCC(=O)NCCN(C)CCn1nc2c3c(cccc31)C(=O)c1c(Cl)cccc1-2)CCn1nc2c3c(cccc31)C(=O)c1c(Cl)cccc1-2	4.8	22	4.6	2.5	0.55
CN(CCNC(=O)CCC(=O)NCCN(C)CCn1nc2c3c(cccc31)C(=O)c1c(Cl)cccc1-2)CCn1nc2c3c(cccc31)C(=O)c1c(Cl)cccc1-2	21.8	7	3.5	1.6	0.44
COc1cccc2c1C(=O)c1c(O)c3c(c(O)c1C2=O)C[C@@](O)(C(=O)CO)C[C@@H]3O[C@H]1C[C@H](N)[C@H](O)[C@H](C)O1	17.8				
CN(CCNC(=O)CCCCC(=O)NCCN(C)CCn1nc2c3c(cccc31)C(=O)c1c(Cl)cccc1-2)CCn1nc2c3c(cccc31)C(=O)c1c(Cl)cccc1-2	6.8	48	6.7	3.3	0.48
